Test results from PMC8119466, “A screen of FDA-approved drugs identifies inhibitors of protein tyrosine phosphatase 4A3 (PTP4A3 or PRL-3)” (Scientific Reports, 2021).
Structures can show the parent of a compound that is named as a salt. Where two headings read alike, the source gives them in different places.

Experiments:
Assay type in all cases: biochemical
recombinant PRL-1 = target: T1, recombinant PRL-1 (Homo sapiens, UniProt Q93096); experiment: In vitro phosphatase assay (DiFMUP hydrolysis), PRL-1; note: test concentration or dose not given here
T1 construct: 6xHis (N, cleaved yes); made in house; host or cells: E. coli One Shot BL21 Star
T1 sequence (Q93096 1-173): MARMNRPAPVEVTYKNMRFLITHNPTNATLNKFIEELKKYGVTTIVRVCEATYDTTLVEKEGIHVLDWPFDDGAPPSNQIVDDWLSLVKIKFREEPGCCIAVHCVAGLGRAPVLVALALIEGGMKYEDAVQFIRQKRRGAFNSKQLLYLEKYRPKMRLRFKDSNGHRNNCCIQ

recombinant PRL-2 = target: T2, recombinant PRL-2 (Homo sapiens, UniProt Q12974); experiment: In vitro phosphatase assay (DiFMUP hydrolysis), PRL-2;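 note: PRL-2 activity read as DiFMUP hydrolysis after 20 min at room temperature with drug, enzyme first pre-reduced at 4 °C for 20 min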
T2 construct: 6xHis (N, cleaved yes); made in house; host or cells: E. coli One Shot BL21 Star
T2 sequence (Q12974 1-167): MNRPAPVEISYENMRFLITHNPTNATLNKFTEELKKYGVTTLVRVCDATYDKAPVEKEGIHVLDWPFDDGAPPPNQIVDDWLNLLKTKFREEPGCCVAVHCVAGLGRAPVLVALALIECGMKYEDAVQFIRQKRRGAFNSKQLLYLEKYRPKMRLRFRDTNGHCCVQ

recombinant PRL-3 = target: T3, recombinant PRL-3 (Homo sapiens, UniProt O75365); experiment: In vitro phosphatase assay (DiFMUP hydrolysis), PRL-3; note: test concentration or dose not given here
T3 construct: 6xHis (N, cleaved yes); made in house; host or cells: E. coli One Shot BL21 Star
T3 sequence (O75365 whole entry): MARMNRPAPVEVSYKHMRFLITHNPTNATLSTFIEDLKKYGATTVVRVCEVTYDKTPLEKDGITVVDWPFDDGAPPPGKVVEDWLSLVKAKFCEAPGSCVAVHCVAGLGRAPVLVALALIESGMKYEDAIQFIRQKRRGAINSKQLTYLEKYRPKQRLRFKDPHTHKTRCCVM

[1] = FDA-approved drug screen, compared to DMSO

## CC[C@@H](CO)NCCN[C@@H](CC)CO [Ethambutol HCl]
Recombinant PRL-1; [1]
  % Phosphatase Activity (compared to DMSO) PRL-1: 99%
Recombinant PRL-2; [1]
  % Phosphatase Activity (compared to DMSO) PRL-2: 111%
Recombinant PRL-3; [1]
  % Phosphatase Activity (compared to DMSO) PRL-3: 93%

## O=S(=O)(O)c1cc(O)ccc1O [Ethamsylate]
Recombinant PRL-1; [1]
  % Phosphatase Activity (compared to DMSO) PRL-1: 96%
Recombinant PRL-2; [1]
  % Phosphatase Activity (compared to DMSO) PRL-2: 99%
Recombinant PRL-3; [1]
  % Phosphatase Activity (compared to DMSO) PRL-3: 71%

## C#C[C@]1(O)CC[C@H]2[C@@H]3CCc4cc(O)ccc4[C@H]3CC[C@@]21C [Ethinyl Estradiol]
Recombinant PRL-1; [1]
  % Phosphatase Activity (compared to DMSO) PRL-1: 99%
Recombinant PRL-2; [1]
  % Phosphatase Activity (compared to DMSO) PRL-2: 99%
Recombinant PRL-3; [1]
  % Phosphatase Activity (compared to DMSO) PRL-3: 75%

## CCc1cc(C(N)=S)ccn1 [Ethionamide]
Recombinant PRL-1
  % Phosphatase Activity (compared to DMSO) PRL-1: 91%
Recombinant PRL-2
  % Phosphatase Activity (compared to DMSO) PRL-2: 101%
Recombinant PRL-3
  % Phosphatase Activity (compared to DMSO) PRL-3: 91%

## CCC1(C)CC(=O)NC1=O (stereo not drawn) [Ethosuximide]
Recombinant PRL-1; [1]
  % Phosphatase Activity (compared to DMSO) PRL-1: 95%
Recombinant PRL-2; [1]
  % Phosphatase Activity (compared to DMSO) PRL-2: 104%
Recombinant PRL-3; [1]
  % Phosphatase Activity (compared to DMSO) PRL-3: 79%

## CCOC(=O)c1ccc(O)cc1 [Ethylparaben]
Recombinant PRL-1; [1]
  % Phosphatase Activity (compared to DMSO) PRL-1: 105%
Recombinant PRL-2; [1]
  % Phosphatase Activity (compared to DMSO) PRL-2: 100%
Recombinant PRL-3; [1]
  % Phosphatase Activity (compared to DMSO) PRL-3: 92%

## C#C[C@]1(OC(C)=O)CC[C@H]2[C@@H]3CCC4=C[C@@H](OC(C)=O)CC[C@@H]4[C@H]3CC[C@@]21C [Ethynodiol diacetate]
Recombinant PRL-1; [1]
  % Phosphatase Activity (compared to DMSO) PRL-1: 93%
Recombinant PRL-2; [1]
  % Phosphatase Activity (compared to DMSO) PRL-2: 112%
Recombinant PRL-3; [1]
  % Phosphatase Activity (compared to DMSO) PRL-3: 88%

## CC(O)(P(=O)(O)O)P(=O)(O)O [Etidronate]
Recombinant PRL-1; [1]
  % Phosphatase Activity (compared to DMSO) PRL-1: 102%
Recombinant PRL-2; [1]
  % Phosphatase Activity (compared to DMSO) PRL-2: 100%
Recombinant PRL-3; [1]
  % Phosphatase Activity (compared to DMSO) PRL-3: 91%

## CCc1cccc2c3c([nH]c12)C(CC)(CC(=O)O)OCC3 (stereo not drawn) [Etodolac]
Recombinant PRL-1; [1]
  % Phosphatase Activity (compared to DMSO) PRL-1: 96%
Recombinant PRL-2; [1]
  % Phosphatase Activity (compared to DMSO) PRL-2: 104%
Recombinant PRL-3; [1]
  % Phosphatase Activity (compared to DMSO) PRL-3: 72%

## CCOC(=O)c1cncn1[C@H](C)c1ccccc1 [Etomidate]
Recombinant PRL-1; [1]
  % Phosphatase Activity (compared to DMSO) PRL-1: 98%
Recombinant PRL-2; [1]
  % Phosphatase Activity (compared to DMSO) PRL-2: 91%
Recombinant PRL-3; [1]
  % Phosphatase Activity (compared to DMSO) PRL-3: 79%

## C#C[C@]1(O)CC[C@H]2[C@@H]3CCC4=CC(=O)CC[C@@H]4[C@H]3C(=C)C[C@@]21CC [Etonogestrel]
Recombinant PRL-1; [1]
  % Phosphatase Activity (compared to DMSO) PRL-1: 90%
Recombinant PRL-2; [1]
  % Phosphatase Activity (compared to DMSO) PRL-2: 85%
Recombinant PRL-3; [1]
  % Phosphatase Activity (compared to DMSO) PRL-3: 80%

## COc1cc([C@@H]2c3cc4c(cc3[C@@H](O[C@@H]3O[C@@H]5CO[C@@H](C)O[C@H]5[C@H](O)[C@H]3O)[C@H]3COC(=O)[C@H]23)OCO4)cc(OC)c1O [Etoposide]
Recombinant PRL-1; [1]
  % Phosphatase Activity (compared to DMSO) PRL-1: 90%
Recombinant PRL-2; [1]
  % Phosphatase Activity (compared to DMSO) PRL-2: 98%
Recombinant PRL-3; [1]
  % Phosphatase Activity (compared to DMSO) PRL-3: 70%

## Cc1ccc(-c2ncc(Cl)cc2-c2ccc(S(C)(=O)=O)cc2)cn1 [Etoricoxib]
Recombinant PRL-1; [1]
  % Phosphatase Activity (compared to DMSO) PRL-1: 93%
Recombinant PRL-2; [1]
  % Phosphatase Activity (compared to DMSO) PRL-2: 102%
Recombinant PRL-3; [1]
  % Phosphatase Activity (compared to DMSO) PRL-3: 91%

## Cc1cc(C#N)cc(C)c1Oc1nc(Nc2ccc(C#N)cc2)nc(N)c1Br [Etravirine (TMC125)]
Recombinant PRL-1; [1]
  % Phosphatase Activity (compared to DMSO) PRL-1: 112%
Recombinant PRL-2; [1]
  % Phosphatase Activity (compared to DMSO) PRL-2: 133%
Recombinant PRL-3; [1]
  % Phosphatase Activity (compared to DMSO) PRL-3: 94%

## Cc1cc(C)c2c(c1)[C@@H](N(Cc1cc(C(F)(F)F)cc(C(F)(F)F)c1)c1nnn(C)n1)CCCN2C[C@H]1CC[C@H](C(=O)O)CC1 [Evacetrapib (LY2484595)]
Recombinant PRL-1; [1]
  % Phosphatase Activity (compared to DMSO) PRL-1: 84%
Recombinant PRL-2; [1]
  % Phosphatase Activity (compared to DMSO) PRL-2: 86%
Recombinant PRL-3; [1]
  % Phosphatase Activity (compared to DMSO) PRL-3: 84%

## CO[C@H]1C[C@@H]2CC[C@@H](C)[C@@](O)(O2)C(=O)C(=O)N2CCCC[C@H]2C(=O)O[C@H]([C@H](C)C[C@@H]2CC[C@@H](OCCO)[C@H](OC)C2)CC(=O)[C@H](C)/C=C(\C)[C@@H](O)[C@@H](OC)C(=O)[C@H](C)C[C@H](C)/C=C/C=C/C=C/1C [Everolimus (RAD001)]
Recombinant PRL-1; [1]
  % Phosphatase Activity (compared to DMSO) PRL-1: 86%
Recombinant PRL-2; [1]
  % Phosphatase Activity (compared to DMSO) PRL-2: 86%
Recombinant PRL-3; [1]
  % Phosphatase Activity (compared to DMSO) PRL-3: 76%

## C=C1C[C@@H]2[C@H](CC[C@]3(C)C(=O)CC[C@@H]23)[C@@]2(C)C=CC(=O)C=C12 [Exemestane]
Recombinant PRL-1; [1]
  % Phosphatase Activity (compared to DMSO) PRL-1: 95%
Recombinant PRL-2; [1]
  % Phosphatase Activity (compared to DMSO) PRL-2: 116%
Recombinant PRL-3; [1]
  % Phosphatase Activity (compared to DMSO) PRL-3: 87%

## O=C1[C@H](CC[C@H](O)c2ccc(F)cc2)[C@@H](c2ccc(O)cc2)N1c1ccc(F)cc1 [Ezetimibe]
Recombinant PRL-1; [1]
  % Phosphatase Activity (compared to DMSO) PRL-1: 100%
Recombinant PRL-2; [1]
  % Phosphatase Activity (compared to DMSO) PRL-2: 82%
Recombinant PRL-3; [1]
  % Phosphatase Activity (compared to DMSO) PRL-3: 80%

## Cc1nc(C(=O)NCC(=O)O)c(O)c2ccc(Oc3ccccc3)cc12 [FG-4592]
Recombinant PRL-1; [1]
  % Phosphatase Activity (compared to DMSO) PRL-1: 136%
Recombinant PRL-2; [1]
  % Phosphatase Activity (compared to DMSO) PRL-2: 139%
Recombinant PRL-3; [1]
  % Phosphatase Activity (compared to DMSO) PRL-3: 95%
